Assay [1] concerns the target Bile salt export pump (Homo sapiens, UniProt O95342). The format is functional.
Assay [2] concerns the target 5-hydroxytryptamine receptor 2B (Homo sapiens, UniProt P41595). In kind it is functional, cell-based.
For assay [3], the target named is T1, Thromboxane A2 receptor (Homo sapiens, UniProt P21731).
T1 sequence (P21731 whole entry): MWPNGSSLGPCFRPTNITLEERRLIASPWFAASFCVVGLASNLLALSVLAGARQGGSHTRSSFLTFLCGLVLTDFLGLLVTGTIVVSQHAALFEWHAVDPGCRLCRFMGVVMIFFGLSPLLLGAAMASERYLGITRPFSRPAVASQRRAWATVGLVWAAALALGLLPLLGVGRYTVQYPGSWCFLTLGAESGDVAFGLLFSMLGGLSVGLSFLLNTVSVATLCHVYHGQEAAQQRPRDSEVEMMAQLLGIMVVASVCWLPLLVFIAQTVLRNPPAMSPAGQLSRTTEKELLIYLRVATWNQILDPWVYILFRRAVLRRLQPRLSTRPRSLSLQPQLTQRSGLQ
In kind it is functional, cell-based.

Assay [4] addresses Sodium-dependent noradrenaline transporter (Homo sapiens, UniProt P23975).
For assay [5], the target named is T2, Amine oxidase [flavin-containing] A (Homo sapiens, UniProt P21397).
T2 sequence (P21397 whole entry): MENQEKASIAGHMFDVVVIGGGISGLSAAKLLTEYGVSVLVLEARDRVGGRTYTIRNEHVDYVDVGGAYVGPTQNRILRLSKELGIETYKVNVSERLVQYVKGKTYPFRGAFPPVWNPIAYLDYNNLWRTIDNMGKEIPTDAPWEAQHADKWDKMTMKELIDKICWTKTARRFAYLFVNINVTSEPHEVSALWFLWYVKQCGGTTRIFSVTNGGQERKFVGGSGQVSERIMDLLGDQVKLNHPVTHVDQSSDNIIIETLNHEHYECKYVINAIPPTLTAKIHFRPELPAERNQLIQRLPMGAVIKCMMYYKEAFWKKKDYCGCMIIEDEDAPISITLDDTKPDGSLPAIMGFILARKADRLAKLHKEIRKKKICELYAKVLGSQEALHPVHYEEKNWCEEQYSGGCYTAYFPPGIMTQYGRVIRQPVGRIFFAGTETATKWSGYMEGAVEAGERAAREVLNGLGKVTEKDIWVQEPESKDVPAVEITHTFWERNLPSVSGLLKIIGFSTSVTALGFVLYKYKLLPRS
In kind it is functional.

Assay [6] addresses T3, Alpha-2A adrenergic receptor (Homo sapiens, UniProt P08913).
T3 sequence (P08913 whole entry): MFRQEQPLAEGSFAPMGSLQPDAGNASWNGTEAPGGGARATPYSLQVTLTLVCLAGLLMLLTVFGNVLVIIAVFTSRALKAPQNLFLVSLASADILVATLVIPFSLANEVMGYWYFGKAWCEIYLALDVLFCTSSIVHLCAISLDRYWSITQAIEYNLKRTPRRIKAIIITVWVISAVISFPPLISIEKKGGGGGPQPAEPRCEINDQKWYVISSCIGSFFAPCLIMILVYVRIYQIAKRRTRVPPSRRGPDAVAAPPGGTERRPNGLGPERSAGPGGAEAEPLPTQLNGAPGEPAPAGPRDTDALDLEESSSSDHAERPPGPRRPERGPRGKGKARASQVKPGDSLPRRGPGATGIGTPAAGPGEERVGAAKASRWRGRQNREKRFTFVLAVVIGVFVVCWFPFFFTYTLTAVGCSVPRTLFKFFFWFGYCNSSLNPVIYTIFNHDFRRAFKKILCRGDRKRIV

The target in assay [7] is Mu-type opioid receptor (Homo sapiens, UniProt P35372).
Chain of Mu-type opioid receptor (P35372 whole entry): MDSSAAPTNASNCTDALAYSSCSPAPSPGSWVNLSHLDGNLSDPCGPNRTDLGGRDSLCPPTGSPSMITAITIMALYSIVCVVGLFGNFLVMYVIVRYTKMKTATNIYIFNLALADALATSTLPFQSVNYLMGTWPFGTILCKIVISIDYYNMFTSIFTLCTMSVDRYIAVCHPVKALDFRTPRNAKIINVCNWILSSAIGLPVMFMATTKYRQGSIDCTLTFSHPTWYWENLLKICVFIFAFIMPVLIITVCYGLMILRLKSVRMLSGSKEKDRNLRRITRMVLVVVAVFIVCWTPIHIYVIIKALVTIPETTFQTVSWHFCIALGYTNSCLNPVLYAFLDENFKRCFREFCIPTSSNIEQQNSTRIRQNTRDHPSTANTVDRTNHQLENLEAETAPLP
Assay [8] deals with D(1A) dopamine receptor (Homo sapiens, UniProt P21728).
Chain of D(1A) dopamine receptor (P21728 whole entry): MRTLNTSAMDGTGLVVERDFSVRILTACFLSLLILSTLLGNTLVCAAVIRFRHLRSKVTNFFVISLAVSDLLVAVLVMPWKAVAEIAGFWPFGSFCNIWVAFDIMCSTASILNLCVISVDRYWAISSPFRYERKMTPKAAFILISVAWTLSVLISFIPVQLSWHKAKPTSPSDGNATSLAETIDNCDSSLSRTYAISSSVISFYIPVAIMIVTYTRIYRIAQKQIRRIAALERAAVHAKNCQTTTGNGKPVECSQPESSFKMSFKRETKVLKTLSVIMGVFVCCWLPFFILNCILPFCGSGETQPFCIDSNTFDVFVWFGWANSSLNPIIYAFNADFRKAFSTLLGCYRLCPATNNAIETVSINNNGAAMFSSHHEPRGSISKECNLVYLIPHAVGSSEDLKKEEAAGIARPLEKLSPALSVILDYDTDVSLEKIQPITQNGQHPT
The target in assay [9] is T4, Muscarinic acetylcholine receptor M2 (Homo sapiens, UniProt P08172).
T4 sequence (P08172 whole entry): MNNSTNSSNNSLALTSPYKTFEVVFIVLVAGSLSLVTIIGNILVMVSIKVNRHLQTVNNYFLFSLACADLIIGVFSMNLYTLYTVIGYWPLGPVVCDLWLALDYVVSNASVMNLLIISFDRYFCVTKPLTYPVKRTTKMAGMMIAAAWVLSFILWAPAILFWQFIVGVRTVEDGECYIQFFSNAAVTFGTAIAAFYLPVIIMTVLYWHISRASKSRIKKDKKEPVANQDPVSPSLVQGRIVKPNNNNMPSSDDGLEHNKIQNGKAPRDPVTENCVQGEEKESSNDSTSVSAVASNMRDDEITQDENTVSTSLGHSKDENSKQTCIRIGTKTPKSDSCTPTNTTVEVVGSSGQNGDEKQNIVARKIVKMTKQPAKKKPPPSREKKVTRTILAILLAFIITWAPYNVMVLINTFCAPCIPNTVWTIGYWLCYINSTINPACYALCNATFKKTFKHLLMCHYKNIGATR

For assay [10], the target named is 3',5'-cyclic-AMP phosphodiesterase 4A (Homo sapiens, UniProt P27815). In kind it is functional.
Chain of 3',5'-cyclic-AMP phosphodiesterase 4A (P27815 whole entry): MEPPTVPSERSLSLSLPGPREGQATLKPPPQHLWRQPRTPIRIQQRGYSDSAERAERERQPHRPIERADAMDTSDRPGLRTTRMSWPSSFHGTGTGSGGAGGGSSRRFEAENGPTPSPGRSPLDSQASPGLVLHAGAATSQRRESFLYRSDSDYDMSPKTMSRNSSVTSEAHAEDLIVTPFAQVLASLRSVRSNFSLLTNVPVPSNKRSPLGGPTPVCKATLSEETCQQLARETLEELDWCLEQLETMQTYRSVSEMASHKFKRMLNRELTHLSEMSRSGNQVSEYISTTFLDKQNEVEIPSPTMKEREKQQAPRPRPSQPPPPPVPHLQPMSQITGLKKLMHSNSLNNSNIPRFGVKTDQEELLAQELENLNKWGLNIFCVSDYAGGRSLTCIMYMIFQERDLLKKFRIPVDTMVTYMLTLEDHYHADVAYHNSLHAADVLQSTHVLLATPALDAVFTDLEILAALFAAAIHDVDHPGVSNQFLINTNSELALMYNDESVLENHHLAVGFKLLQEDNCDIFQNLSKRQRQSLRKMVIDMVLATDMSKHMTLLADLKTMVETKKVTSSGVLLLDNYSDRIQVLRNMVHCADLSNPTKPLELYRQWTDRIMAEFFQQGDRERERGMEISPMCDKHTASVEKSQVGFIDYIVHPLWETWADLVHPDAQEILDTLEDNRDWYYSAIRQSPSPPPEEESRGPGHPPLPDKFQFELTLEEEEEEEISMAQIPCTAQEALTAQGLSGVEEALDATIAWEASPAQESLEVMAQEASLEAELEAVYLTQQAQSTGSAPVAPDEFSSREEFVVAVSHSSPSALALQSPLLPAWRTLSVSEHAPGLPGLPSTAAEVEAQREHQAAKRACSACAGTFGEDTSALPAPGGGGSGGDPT
Assay [11] deals with Prostaglandin G/H synthase 1 (Homo sapiens, UniProt P23219). The format is functional.
Chain of Prostaglandin G/H synthase 1 (P23219 whole entry): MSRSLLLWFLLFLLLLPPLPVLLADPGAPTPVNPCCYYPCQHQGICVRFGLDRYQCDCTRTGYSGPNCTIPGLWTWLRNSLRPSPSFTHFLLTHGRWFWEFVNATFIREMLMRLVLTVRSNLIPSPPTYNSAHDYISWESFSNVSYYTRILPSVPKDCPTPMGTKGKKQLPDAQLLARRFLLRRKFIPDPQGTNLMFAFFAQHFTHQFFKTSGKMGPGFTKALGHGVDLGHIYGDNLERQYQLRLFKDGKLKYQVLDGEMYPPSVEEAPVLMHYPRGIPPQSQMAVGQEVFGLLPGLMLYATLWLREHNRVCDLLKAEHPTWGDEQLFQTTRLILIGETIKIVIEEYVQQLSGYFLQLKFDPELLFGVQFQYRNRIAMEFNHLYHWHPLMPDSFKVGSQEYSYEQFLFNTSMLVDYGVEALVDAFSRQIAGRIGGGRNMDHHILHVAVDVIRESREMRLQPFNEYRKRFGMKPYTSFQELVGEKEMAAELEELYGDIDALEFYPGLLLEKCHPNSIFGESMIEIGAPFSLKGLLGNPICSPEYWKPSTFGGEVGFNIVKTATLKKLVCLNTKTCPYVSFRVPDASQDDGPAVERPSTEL
Further: assay procedure not described here.

Chain of Sodium-dependent noradrenaline transporter (P23975 whole entry): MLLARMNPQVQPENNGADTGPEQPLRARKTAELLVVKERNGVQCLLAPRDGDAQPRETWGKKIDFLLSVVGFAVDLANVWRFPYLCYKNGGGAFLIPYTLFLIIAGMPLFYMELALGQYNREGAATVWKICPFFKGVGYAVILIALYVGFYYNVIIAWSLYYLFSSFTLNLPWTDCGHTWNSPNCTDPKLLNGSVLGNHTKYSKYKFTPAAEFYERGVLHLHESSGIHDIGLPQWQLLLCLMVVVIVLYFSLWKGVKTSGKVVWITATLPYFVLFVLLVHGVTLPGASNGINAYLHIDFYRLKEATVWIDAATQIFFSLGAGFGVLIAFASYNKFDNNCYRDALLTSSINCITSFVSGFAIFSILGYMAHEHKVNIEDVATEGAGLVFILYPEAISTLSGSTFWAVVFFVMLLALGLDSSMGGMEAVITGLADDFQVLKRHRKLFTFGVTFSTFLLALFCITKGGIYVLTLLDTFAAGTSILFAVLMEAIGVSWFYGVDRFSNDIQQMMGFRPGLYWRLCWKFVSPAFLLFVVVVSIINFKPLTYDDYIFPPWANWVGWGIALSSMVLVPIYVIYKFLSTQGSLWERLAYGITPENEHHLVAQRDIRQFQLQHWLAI
Chain of Bile salt export pump (O95342 whole entry): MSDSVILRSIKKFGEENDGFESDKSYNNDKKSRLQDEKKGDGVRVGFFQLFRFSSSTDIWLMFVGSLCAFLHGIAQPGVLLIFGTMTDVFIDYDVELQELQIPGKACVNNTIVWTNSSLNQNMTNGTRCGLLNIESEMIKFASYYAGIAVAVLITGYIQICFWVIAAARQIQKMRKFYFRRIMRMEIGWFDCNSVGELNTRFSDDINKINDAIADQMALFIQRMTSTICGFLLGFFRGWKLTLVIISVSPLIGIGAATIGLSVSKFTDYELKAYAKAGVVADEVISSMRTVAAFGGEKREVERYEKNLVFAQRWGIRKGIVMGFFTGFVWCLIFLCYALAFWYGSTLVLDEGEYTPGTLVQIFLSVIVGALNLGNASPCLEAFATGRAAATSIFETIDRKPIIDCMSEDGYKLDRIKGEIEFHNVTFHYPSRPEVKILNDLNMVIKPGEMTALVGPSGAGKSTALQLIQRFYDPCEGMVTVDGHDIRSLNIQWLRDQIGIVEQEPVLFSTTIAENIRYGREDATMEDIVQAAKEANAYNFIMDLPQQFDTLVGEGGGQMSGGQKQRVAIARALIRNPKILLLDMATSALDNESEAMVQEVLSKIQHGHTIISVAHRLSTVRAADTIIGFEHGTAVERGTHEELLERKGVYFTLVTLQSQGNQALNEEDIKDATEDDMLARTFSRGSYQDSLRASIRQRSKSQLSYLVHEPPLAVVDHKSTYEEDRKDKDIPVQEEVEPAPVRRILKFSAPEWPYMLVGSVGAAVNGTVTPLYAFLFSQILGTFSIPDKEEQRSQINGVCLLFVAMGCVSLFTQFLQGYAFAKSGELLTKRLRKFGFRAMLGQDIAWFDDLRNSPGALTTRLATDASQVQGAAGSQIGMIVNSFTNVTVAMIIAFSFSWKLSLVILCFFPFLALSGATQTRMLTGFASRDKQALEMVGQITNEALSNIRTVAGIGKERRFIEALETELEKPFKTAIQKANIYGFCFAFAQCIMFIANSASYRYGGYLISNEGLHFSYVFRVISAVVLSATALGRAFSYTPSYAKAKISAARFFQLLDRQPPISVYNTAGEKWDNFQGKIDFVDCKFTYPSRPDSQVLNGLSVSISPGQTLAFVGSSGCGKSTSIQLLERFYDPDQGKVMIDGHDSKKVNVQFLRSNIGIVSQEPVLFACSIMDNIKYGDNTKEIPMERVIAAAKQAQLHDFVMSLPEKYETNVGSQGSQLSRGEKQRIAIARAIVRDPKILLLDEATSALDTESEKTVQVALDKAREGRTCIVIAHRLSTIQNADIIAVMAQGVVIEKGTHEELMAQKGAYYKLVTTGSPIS
Chain of 5-hydroxytryptamine receptor 2B (P41595 whole entry): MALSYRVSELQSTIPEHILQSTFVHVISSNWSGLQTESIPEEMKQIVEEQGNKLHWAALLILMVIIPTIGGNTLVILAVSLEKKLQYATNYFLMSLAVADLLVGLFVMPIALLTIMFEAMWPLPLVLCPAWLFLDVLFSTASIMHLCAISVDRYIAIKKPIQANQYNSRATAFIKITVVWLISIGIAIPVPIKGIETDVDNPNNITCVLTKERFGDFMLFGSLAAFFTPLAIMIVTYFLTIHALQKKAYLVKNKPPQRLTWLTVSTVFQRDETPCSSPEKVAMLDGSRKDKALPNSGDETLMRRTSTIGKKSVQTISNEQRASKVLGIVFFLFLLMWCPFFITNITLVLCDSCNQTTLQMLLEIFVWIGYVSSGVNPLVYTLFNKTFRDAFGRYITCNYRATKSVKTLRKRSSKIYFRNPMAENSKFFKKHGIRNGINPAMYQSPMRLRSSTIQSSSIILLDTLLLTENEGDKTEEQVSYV

One may read the AC50 as the concentration at which the activity in the assay is half-maximal. For `C[C@@H](NCCCc1cccc(C(F)(F)F)c1)c1cccc2ccccc12`, in assay [1], the AC50 came out at 58 µM.

In the case of `Cc1onc(-c2ccccc2)c1-c1ccc(S(N)(=O)=O)cc1` [VALDECOXIB], the AC50 in [2] was over 30 µM; in [3] it was over 30 µM; in assay [4] it was 2.31 µM; in assay [5], over 30 µM; in assay [1], 240 µM; in assay [6] it was over 30 µM. The AC50 was over 30 µM in assay [7], over 30 µM in [8], over 30 µM in assay [9] and 18.7 µM in assay [10].

On to `C[C@]12C=CC(=O)N[C@@H]1CC[C@@H]1[C@@H]2CC[C@]2(C)[C@@H](C(=O)Nc3cc(C(F)(F)F)ccc3C(F)(F)F)CC[C@@H]12` [DUTASTERIDE], for which, in assay [1], the AC50 came out at 14 µM.

Take `CN(C)CCc1c[nH]c2ccc(Cn3cncn3)cc12` [RIZATRIPTAN]: in [1], the AC50 was over 300 µM.

In the case of `Nc1ccc(S(=O)(=O)Nc2nccs2)cc1` [SULFATHIAZOLE], the AC50 in assay [1] was over 300 µM.

Turning to `N[C@@H](CC(=O)N1CCn2c(nnc2C(F)(F)F)C1)Cc1cc(F)c(F)cc1F` [SITAGLIPTIN], the half-maximal activity concentration (AC50) in [1] is over 300 µM.

Turning to `CC(S)C(=O)NCC(=O)O` (stereo not drawn) [TIOPRONIN], the half-maximal activity concentration (AC50) in assay [1] is over 300 µM.

For `COc1ccc(CC2c3cc(OC)c(OC)cc3CC[N+]2(C)CCC(=O)OCCCCCOC(=O)CC[N+]2(C)CCc3cc(OC)c(OC)cc3C2Cc2ccc(OC)c(OC)c2)cc1OC` (stereo not drawn), in assay [1], the AC50 is 170 µM.

With `CC(C)(C)NCC(O)c1cc(O)cc(O)c1` (stereo not drawn) [TERBUTALINE], the AC50 in [1] was over 300 µM.

For the molecule `CC(N)C12CC3CC(CC(C3)C1)C2` (stereo not drawn) [RIMANTADINE], in assay [1], the AC50 is over 300 µM.

In the case of `O=C1CCc2cc(OCCCCc3nnnn3C3CCCCC3)ccc2N1` [CILOSTAZOL], the AC50 in [1] worked out at 62 µM.

For `CCN(CC)CCNC(=O)c1c(C)[nH]c(/C=C2\C(=O)Nc3ccc(F)cc32)c1C` [SUNITINIB], in [1], the AC50 is 34 µM.

With `COc1ccccc1Oc1c(NS(=O)(=O)c2ccc(C(C)(C)C)cc2)nc(-c2ncccn2)nc1OCCO` [BOSENTAN], in assay [1], the AC50 was determined as 18 µM.

In the case of `O=C1CN(/N=C/c2ccc(-c3ccc([N+](=O)[O-])cc3)o2)C(O)=N1` [DANTROLENE], in assay [1], the AC50 was 35 µM.

Regarding `CC(C(=O)O)c1ccc2c(c1)[nH]c1ccc(Cl)cc12` (stereo not drawn) [CARPROFEN], the concentration at half-maximal activity (AC50) in [1] came to 120 µM.

Turning to `C[C@H]1c2cccc(O)c2C(=O)C2=C(O)[C@]3(O)C(=O)C(C(N)=O)=C(O)[C@@H](N(C)C)[C@@H]3[C@@H](O)[C@@H]21` [DOXYCYCLINE], in [1], the AC50 is over 300 µM.

Consider `CC(C)N(CCC(C(N)=O)(c1ccccc1)c1ccccn1)C(C)C` (stereo not drawn) [DISOPYRAMIDE], for which the half-maximal activity concentration (AC50) in [1] is over 300 µM.

Consider `CCN1CCN(Cc2ccc(Nc3ncc(F)c(-c4cc(F)c5nc(C)n(C(C)C)c5c4)n3)nc2)CC1` [ABEMACICLIB], for which, in assay [1], the AC50 was 33 µM.

As to `CC(C)Cc1ccc(C(C)C(=O)O)cc1` (stereo not drawn) [IBUPROFEN], the AC50 in assay [2] was over 30 µM; in assay [3], over 30 µM; in assay [4], over 30 µM; in assay [5], over 30 µM; in assay [1], over 300 µM; in [6], over 30 µM. For the same molecule, the AC50 in [7], in assay [8], in [9] and in [10] was over 30 µM each time.

Turning to `CN(C)CC[C@@H](c1ccc(Cl)cc1)c1ccccn1` [DEXCHLORPHENIRAMINE], the AC50 in assay [1] was over 300 µM.

Regarding `COc1ccccc1OCCNCC(O)COc1cccc2[nH]c3ccccc3c12` (stereo not drawn) [CARVEDILOL], the AC50 in [1] was 79 µM.

On to `O=C1C(CC[S+]([O-])c2ccccc2)C(=O)N(c2ccccc2)N1c1ccccc1` (stereo not drawn) [SULFINPYRAZONE], for which the AC50 in [1] was 24 µM.

In the case of `C[C@H](CCC(=O)O)[C@H]1CC[C@H]2[C@@H]3[C@@H](O)C[C@@H]4C[C@H](O)CC[C@]4(C)[C@H]3CC[C@]12C` [URSODIOL], the AC50 in assay [1] worked out at 95 µM.

Take `CC(C)c1nc(N(C)S(C)(=O)=O)nc(-c2ccc(F)cc2)c1/C=C/[C@@H](O)C[C@@H](O)CC(=O)O` [ROSUVASTATIN]: the AC50 in [1] worked out at 160 µM.

Turning to `C=CC[C@@H]1/C=C(\C)C[C@H](C)C[C@H](OC)[C@H]2O[C@@](O)(C(=O)C(=O)N3CCCC[C@H]3C(=O)O[C@H](/C(C)=C/[C@@H]3CC[C@@H](O)[C@H](OC)C3)[C@H](C)[C@@H](O)CC1=O)[C@H](C)C[C@@H]2OC` [TACROLIMUS ANHYDROUS], in assay [1], the AC50 came to 11 µM.

`CO[C@H]1/C=C/O[C@@]2(C)Oc3c(C)c(O)c4c(O)c(c(/C=N/N5CCN(C)CC5)c(O)c4c3C2=O)NC(=O)/C(C)=C\C=C\[C@H](C)[C@H](O)[C@@H](C)[C@@H](O)[C@@H](C)[C@H](OC(C)=O)[C@@H]1C` [RIFAMPIN]: the AC50 in assay [1] turned out to be 9.6 µM.

Turning to `CN(C)CCC[C@@]1(c2ccc(F)cc2)OCc2cc(C#N)ccc21` [ESCITALOPRAM], the AC50 in assay [1] was over 300 µM.

As for `C[C@]1(Cn2ccnn2)[C@H](C(=O)O)N2C(=O)C[C@H]2S1(=O)=O` [TAZOBACTAM], the AC50 in assay [2], in assay [3], in assay [4], in assay [5], in assay [11] and in [6] was over 30 µM in each case. For the same molecule, the AC50 in assay [7], in assay [8], in assay [9] and in assay [10] was over 30 µM in each case.

For `CN1CCCCC1CCN1c2ccccc2Sc2ccc([S+](C)[O-])cc21` (stereo not drawn) [MESORIDAZINE], the half-maximal activity concentration (AC50) in assay [2] was over 30 µM; in assay [3], over 30 µM; in assay [4] it was 28.8 µM; in assay [5] it was over 30 µM; in assay [11] it was over 30 µM; in assay [6], 2.59 µM. The AC50 is 2.99 µM in assay [7], 0.0712 µM in assay [8], 0.153 µM in assay [9] and over 30 µM in [10].

For `CN1C[C@H](C(=O)N[C@]2(C)O[C@@]3(O)[C@@H]4CCCN4C(=O)[C@H](Cc4ccccc4)N3C2=O)C=C2c3cccc4[nH]cc(c34)C[C@H]21` [ERGOTAMINE], the AC50 in assay [1] stood at 25 µM.

Take `N[C@@H](CS)C(=O)O` [CYSTEINE]: the half-maximal activity concentration (AC50) in assay [2], in [3], in [4], in [5], in assay [11] and in assay [6] was over 30 µM in each case. Further, the AC50 in [7], in assay [8], in [9] and in [10] was over 30 µM each time.

In the case of `C=C[C@H]1C[N@@]2CC[C@H]1C[C@@H]2[C@@H](O)c1ccnc2ccc(OC)cc12` [QUINIDINE], the AC50 in assay [1] amounted to 64 µM.

For `C[C@@H](Oc1cc(-c2cnn(C3CCNCC3)c2)cnc1N)c1c(Cl)ccc(F)c1Cl` [CRIZOTINIB], in assay [1], the AC50 worked out at 154 µM.

For the origin of these results see ChEMBL document CHEMBL5291721, “A preclinical secondary pharmacology resource illuminates target-adverse drug reaction associations of marketed drugs” (Nat Commun, 2023).
